Test results: paper doi:10.1101/2023.04.10.536218v2, “A novel and highly specific Forssman antigen-binding protein from sheep polyomavirus” (biorxiv, 2023)
pKd: −log10 of the molar value.

Biological target: ShPyV VP1
Settings: glycan coupled to BSA by reductive amination and immobilised on CM5 chip; multivalent (avidity); pH 7.4, 25 °C; kinetic fit

CC(=O)N[C@H]1[C@@H](O[C@H]2[C@@H](O)[C@@H](CO)O[C@@H](O[C@H]3[C@@H](O)[C@@H](CO)O[C@H](O[C@@H]4[C@H](O)[C@@H](O)[C@H](O[C@H]5[C@H](O)[C@@H](O)C(O)O[C@@H]5CO)O[C@@H]4CO)[C@@H]3O)[C@@H]2NC(C)=O)O[C@H](CO)[C@H](O)[C@@H]1O (stereo partly shown) [FP, Forssman pentaose]
pKd: 8.44
